Experimental data taken from patent publication US6982353B2, “C2-disubstituted indan-1-ol compounds, their derivatives, processes for their preparation, and their use as pharmaceuticals” (Aventis Pharma Deutschland GmbH, priority 2001, dated 2006).

Experiments:
female NMRI mice = assay: Anorectic action: cumulative evaporated milk consumption after 24 h removal of feed; format: in vivo; details: dose 20 mg/kg (ip or po, route not specified)
Description: The anorectic action was tested on female NMRI mice. After removal of feed for 24 hours, the preparation to be tested was administered intraperitoneally (ip) or by gavage (po). The animals were housed singly and, with free access to drinking water, they were offered evaporated milk 30 minutes after administration of the preparation. The consumption of evaporated milk was determined and the general behavior of the animals was monitored every half an hour for 7 hours. The measured milk consumption was compared to that of vehicle-treated control animals.

- melting point: 101 °C
SMILES: CS(=O)(=O)C1(F)Cc2cc(Cl)ccc2C1O (stereo not drawn) [Example 1, 5-Chloro-2-fluoro-2-methanesulfonylindan-1-ol]
- Reduction in cumulative milk consumption as % of the control (female NMRI mice; compared with untreated control animals): 46%
- cumulative milk consumption by treated animals (female NMRI mice; feed removed 24 h, milk offered 30 min after administration, monitored for 7 hours): 5/2.06 ml
